Reference: patent US20140221282A1, “LONG DURATION DUAL HORMONE CONJUGATES” (priority 2011, published 2014)
pIC50: −log10 of the molar value. Ends that are not written are not given here. Y‑shaped‑mPEG40KD = Y-shaped methoxy-PEG of 40 kDa attached to the Lys side chain; mPEG40KD = methoxy-PEG of 40 kDa

Key:
[1] = Body weight change in lean rats; assay type: in vivo; details: for body weight reduction: SC 125 nmol/kg (FIG. 17)
Description: Lean rats were administered a subcutaneous (SC) once weekly injection of test compound (125 nmol/kg) or vehicle. FIGS. 13A-13B provide the result of a multi-day food intake assays. The effect on 24-hour food intake was investigated for Cmpds 69, 73, 72, 70, and 74, using vehicle as control. […] In the case of some of the compounds, weight loss was still evident even after one week.
The effect on 24-hour food intake, as judged with SC injection (125 nmol/kg), was investigated for Cmpds 74, 76, 77 and 78.
Test animals (lean rats) were injected SC at 125 nmol/kg, and body weight corrected for vehicle (FIG. 19A) and cumulative food intake (FIG. 19B) were determined for 7-days. As shown in FIGS. 19A-19B, most compounds in the tested series provided weight loss which was still evident after 7-days.

[2] = Food intake in lean rats; assay type: in vivo; details: for food intake: SC once weekly injection 125 nmol/kg
Description: A variety of food intake assays are available to one of skill in the art. For example, in the so-called “home cage model” of food intake, subjects (e.g., rats) are maintained in their home cage, and food intake along with total weight of the subject is measured following injection of test compound. In the so-called “feeding patterns model” of food intake assay, subjects (e.g., rats) are habituated to a feeding chamber and to injections prior to testing. After test compound administration, the subjects are immediately placed into the feeding chamber, and food intake is automatically determined as a function of time (e.g., 1-min intervals). For both tests, the food is standard chow or any of a variety of chows (e.g., high fat) known in the art. In the so-called “mouse food intake” assay, a test compound may be tested for appetite suppression, or for an effect on body weight gain in diet-induced obesity (DIO) mice. In a typical mouse food intake assay, female NIH/Swiss mice (8-24 weeks old) are group housed with a 12:12 hour light:dark cycle with lights on at 0600. Water and a standard pelleted mouse chow diet are available ad libitum, except as noted. Animals are fasted starting at approximately 1500 hrs, I day prior to experiment. The morning of the experiment, animals are divided into experimental groups. In a typical study, n=4 cages with 3 mice/cage. At time=0 min, all animals are given an intraperitoneal injection of vehicle or compound, typically in an amount ranging from about 10 nmol/kg to 75 nmol/kg, and immediately given a pre-weighed amount (10-15 g) of the standard chow. Food is removed and weighed at various times, typically 30, 60, and 120 minutes, to determine the amount of food consumed. See e.g., Morley et al., 1994, Am. J. Physiol. 267:R178-R184). Food intake is calculated by subtracting the weight of the food remaining at the e.g. 30, 60, 120, 180 and/or 240 minute time point, from the weight of the food provided initially at time=0. Significant treatment effects are identified by ANOVA (p<0.05). Where a significant difference exists, test means are compared to the control mean using Dunnett's test (Prism v. 2.01, GraphPad Software Inc., San Diego, Calif.). For any test described herein, administration of test compound can be by any means, including injection (e.g., subcutaneous, intraperitoneal, and the like), oral, or other methods of administration known in the art.
FIGS. 13A-13B provide the result of a multi-day food intake assays. The effect on 24-hour food intake was investigated for Cmpds 69, 73, 72, 70, and 74, using vehicle as control. […] In the case of some of the compounds, weight loss was still evident even after one week. […]
As shown in FIGS. 19A-19B, most compounds in the tested series provided weight loss which was still evident after 7-days.

[3] = target: amylin receptor; assay: Amylin receptor binding assay, rat nucleus accumbens membranes; details: 125I-rat amylin displacement
Source text: Dried glass fiber plates were combined with scintillant and counted on a multi-well Perkin Elmer scintillation counter, as well known in the art.

[4] = Body weight change in diet induced obese (DIO) rats; assay type: in vivo, DIO Sprague Dawley rats; details: SC once a week 125 nmol/kg, four weeks
Description: The effect of Cmpd 14 on body weight was examined in male outbred diet-induced obese Sprague Dawley rats. Percent vehicle-corrected change in body weight was measured relative to PEGylated parent peptides alone and in combination. […]
Specifically, in this experiment the duration of action on food intake and change in body weight was compared for compounds having a single active peptide element (Cmpd 6 and Cmpd 7) relative to the combined dosing of these compounds, and further relative to LDDHC Cmpd 14, having the active peptide elements of Cmpds 6-7 separated by a 40 kDa PEG water-soluble polymeric spacer. […] In the combination dosing, each of Cmpd 6 and Cmpd 7 was administered at 32 nmol/kg. The test subjects were DIO rats (n=6/group, body weight baseline=478 g). […]
Plasma drug levels were determined by ELISA assay.
[…] The baseline body weight was 505 gm.

[5] = Body weight change in lean rats; assay type: in vivo; details: for body weight reduction: Cmpd 77 31.25-250 nmol/kg, Cmpd 79 250 nmol/kg (FIG. 18)
[6] = SC once weekly injection 125 nmol/kg
[7] = Cmpd 77 31.25-250 nmol/kg, Cmpd 79 250 nmol/kg (FIG. 18)

Compound | body weight [1, 6] | food intake [2] | pIC50 [3] | also measured
[K^21(mPEG40KD)]-Cmpd 52 (CNTATCATQRLANFLVRSSK(mPEG 40 kDa)NLGPVLPPTNVGSNTY-NH2; cysteine pairing not given here) [Cmpd 70] | efficacious | efficacious | – | –
[K^26(mPEG40KD)]-Cmpd 53 (KCNTATCATQRLANFLVRSSNNLGPK(mPEG40KD)LPPTNVGSNTY-NH2; cysteine pairing not given here) [Cmpd 71] | – | – | 7.18 | weight loss [4]: not as efficacious as infused Cmpd 49; food intake, dose response ([2]; 12-250 nmol/kg): reduced body weight and food intake in a dose dependent fashion; body weight, dose response ([5]; 12-250 nmol/kg): reduced body weight and food intake in a dose dependent fashion
[K^26(mPEG40KD)]-Cmpd 60 (CNTATCATQRLANFLVHSSNNFGPK(mPEG40KD)LPPTNVGSNTY-NH2; cysteine pairing not given here) [Cmpd 77] | – | – | – | body weight reduction [1]: at least as efficacious as Cmpd 74; food intake reduction [2, 7]: dose dependent efficacy; food intake reduction ([2]; SC 125 nmol/kg (FIG. 17)): at least as efficacious as Cmpd 74; body weight reduction [5]: dose dependent efficacy
CC(C)C[C@H](NC(=O)[C@H](CC(N)=O)NC(=O)[C@H](CC(N)=O)NC(=O)[C@H](CO)NC(=O)[C@H](CO)NC(=O)[C@H](CCCNC(=N)N)NC(=O)[C@@H](NC(=O)[C@H](CC(C)C)NC(=O)[C@H](Cc1ccccc1)NC(=O)[C@H](CC(N)=O)NC(=O)[C@H](C)NC(=O)[C@H](CC(C)C)NC(=O)[C@H](CCCNC(=N)N)NC(=O)[C@H](CCC(N)=O)NC(=O)[C@@H](NC(=O)[C@H](C)NC(=O)[C@@H]1CSSC[C@H](NC(=O)[C@@H](N)CCCCN)C(=O)N[C@@H](CC(N)=O)C(=O)N[C@@H]([C@@H](C)O)C(=O)N[C@@H](C)C(=O)N[C@@H]([C@@H](C)O)C(=O)N1)[C@@H](C)O)C(C)C)C(=O)NCC(=O)N1CCC[C@H]1C(=O)N[C@H](C(=O)N[C@@H](CC(C)C)C(=O)N1CCC[C@H]1C(=O)N1CCC[C@H]1C(=O)N[C@H](C(=O)N[C@@H](CC(N)=O)C(=O)N[C@H](C(=O)NCC(=O)N[C@@H](CO)C(=O)N[C@@H](CC(N)=O)C(=O)N[C@H](C(=O)N[C@@H](Cc1ccc(O)cc1)C(N)=O)[C@@H](C)O)C(C)C)[C@@H](C)O)C(C)C [Cmpd 49, reference compound] | – | – | 10.00 | –
[K^31(mPEG40KD)]-Cmpd 55 (KCNTATCATQRLANFLVRSSNNLGPVLPPTK(mPEG40KD)VGSNTY-NH2; cysteine pairing not given here) [Cmpd 73] | efficacious | efficacious | – | –
[K^21(mPEG40KD)]-Cmpd 59 (CNTATCATQRLANFLVHSSK(mPEG 40 kDa)NFGPILPPTNVGSNTY-NH2; cysteine pairing not given here) [Cmpd 76] | – | – | – | body weight reduction [1]: at least as efficacious as Cmpd 74; food intake reduction ([2]; SC 125 nmol/kg (FIG. 17)): at least as efficacious as Cmpd 74
[K^31(mPEG40KD)]-Cmpd 61 (CNTATCATQRLANFLVHSSNNFGPILPPTK(mPEG40KD)VGSNTY-NH2; cysteine pairing not given here) [Cmpd 78] | – | – | – | body weight reduction [1]: at least as efficacious as Cmpd 74; food intake reduction ([2]; SC 125 nmol/kg (FIG. 17)): at least as efficacious as Cmpd 74
[K^26(Y-shaped-mPEG40KD)]-Cmpd 53 (KCNTATCATQRLANFLVRSSNNLGPK(Y‑shaped‑mPEG40KD)LPPTNVGSNTY-NH2; cysteine pairing not given here) [Cmpd 75] | – | – | 6.33 | body weight ([1]; single SC dose, y-branched vs linear PEG): not as efficacious as the linear pegylated version, Cmpd 71
[K^26(Y-shaped-mPEG40KD)]-Cmpd 60 (CNTATCATQRLANFLVHSSNNFGPK(Y‑shaped‑mPEG40KD)LPPTNVGSNTY-NH2; cysteine pairing not given here) [Cmpd 79] | – | – | – | food intake reduction [2, 7]: not as efficacious as the linear pegylated version, Cmpd 77; body weight reduction [5]: not as efficacious as the linear pegylated version, Cmpd 77
CNTATCATQRLANFLVRSSNNLGPVLPPTNVGSNTY [Cmpd 50, [des-Lys^1]-Cmpd 49] | – | – | 9.38 | –
[K^31(mPEG40KD)]-Cmpd 56 (CNTATCATQRLANFLVRSSNNLGPVLPPTK(mPEG40KD)VGSNTY-NH2; cysteine pairing not given here) [Cmpd 74] | efficacious | efficacious | – | –
[K^21(mPEG40KD)]-Cmpd 51 (KCNTATCATQRLANFLVRSSK(mPEG 40 kDa)NLGPVLPPTNVGSNTY-NH2; cysteine pairing not given here) [Cmpd 69] | efficacious | efficacious | – | –
mPEG40KD-Cmpd 50 (CNTATCATQRLANFLVRSSNNLGPVLPPTNVGSNTY-NH2; cysteine pairing not given here; also: mPEG40KD attached, site not given here) [Cmpd 68] | – | – | 7.11 | –
[K^26(mPEG40KD)]-Cmpd 54 (CNTATCATQRLANFLVRSSNNLGPK(mPEG40KD)LPPTNVGSNTY-NH2; cysteine pairing not given here) [Cmpd 72] | efficacious | efficacious | – | –
